# Read-outs that look alike come from different tables or passages of the source.
# Key:
# [1] = target: T1, ADRa1A (α1A adrenergic receptor) (Homo sapiens, UniProt P35348); test: BRET-based G protein dissociation assay; assay type: cell-based
# T1 sequence (P35348 1-466): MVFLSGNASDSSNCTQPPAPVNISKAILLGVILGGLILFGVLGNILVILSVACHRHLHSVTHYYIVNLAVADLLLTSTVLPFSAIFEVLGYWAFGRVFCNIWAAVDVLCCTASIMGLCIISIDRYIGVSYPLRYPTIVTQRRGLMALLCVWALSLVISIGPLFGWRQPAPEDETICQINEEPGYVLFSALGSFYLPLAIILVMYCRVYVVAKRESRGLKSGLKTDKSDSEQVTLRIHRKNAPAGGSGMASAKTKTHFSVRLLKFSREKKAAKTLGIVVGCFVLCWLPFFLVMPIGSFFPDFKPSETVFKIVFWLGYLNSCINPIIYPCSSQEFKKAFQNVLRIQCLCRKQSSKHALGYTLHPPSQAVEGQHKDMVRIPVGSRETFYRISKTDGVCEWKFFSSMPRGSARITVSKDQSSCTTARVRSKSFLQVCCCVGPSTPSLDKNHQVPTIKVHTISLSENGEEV
# [2] = target: CHRM5 (M5 muscarinic receptor) (Homo sapiens, UniProt P08912); test: BRET-based G protein dissociation assay; assay type: cell-based
# Chain of CHRM5 (M5 muscarinic receptor) (P08912 whole entry): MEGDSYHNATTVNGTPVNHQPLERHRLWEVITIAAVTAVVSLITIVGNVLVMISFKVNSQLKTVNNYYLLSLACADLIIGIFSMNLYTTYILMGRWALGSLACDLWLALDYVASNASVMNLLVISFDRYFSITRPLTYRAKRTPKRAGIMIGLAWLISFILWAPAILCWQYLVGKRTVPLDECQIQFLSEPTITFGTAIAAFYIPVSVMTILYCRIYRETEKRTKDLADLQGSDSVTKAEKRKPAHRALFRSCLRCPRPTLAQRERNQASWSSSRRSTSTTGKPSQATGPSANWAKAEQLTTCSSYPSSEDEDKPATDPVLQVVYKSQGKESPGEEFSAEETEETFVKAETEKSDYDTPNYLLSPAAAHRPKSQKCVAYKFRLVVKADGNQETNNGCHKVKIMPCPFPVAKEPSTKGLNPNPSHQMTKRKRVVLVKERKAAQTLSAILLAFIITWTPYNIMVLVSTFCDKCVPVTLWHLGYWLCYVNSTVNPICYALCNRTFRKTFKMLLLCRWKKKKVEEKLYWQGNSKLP
# [3] = target: T2, ADRa2C (α2C adrenergic receptor) (Homo sapiens, UniProt P18825); test: cell-based
# T2 sequence (P18825 1-462): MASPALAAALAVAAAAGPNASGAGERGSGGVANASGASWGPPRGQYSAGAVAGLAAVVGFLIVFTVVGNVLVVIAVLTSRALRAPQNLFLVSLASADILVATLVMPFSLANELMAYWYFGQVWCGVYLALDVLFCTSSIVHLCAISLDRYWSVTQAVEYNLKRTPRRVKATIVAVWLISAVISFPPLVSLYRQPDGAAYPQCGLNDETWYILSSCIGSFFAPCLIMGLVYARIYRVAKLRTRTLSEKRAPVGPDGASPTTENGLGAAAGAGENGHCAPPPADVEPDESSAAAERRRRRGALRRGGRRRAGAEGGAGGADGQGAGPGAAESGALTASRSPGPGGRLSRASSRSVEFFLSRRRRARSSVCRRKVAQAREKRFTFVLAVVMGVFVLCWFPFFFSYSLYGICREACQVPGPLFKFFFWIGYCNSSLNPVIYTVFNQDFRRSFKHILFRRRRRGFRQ
# hERG channel = target: T3, hERG channel (Homo sapiens, UniProt Q12809); test: Cell-based hERG antagonist assay, CHO-K1 cells, tail current
# T3 construct: expressed in transfected cells; host or cells: CHO-K1
# T3 sequence (Q12809 whole entry): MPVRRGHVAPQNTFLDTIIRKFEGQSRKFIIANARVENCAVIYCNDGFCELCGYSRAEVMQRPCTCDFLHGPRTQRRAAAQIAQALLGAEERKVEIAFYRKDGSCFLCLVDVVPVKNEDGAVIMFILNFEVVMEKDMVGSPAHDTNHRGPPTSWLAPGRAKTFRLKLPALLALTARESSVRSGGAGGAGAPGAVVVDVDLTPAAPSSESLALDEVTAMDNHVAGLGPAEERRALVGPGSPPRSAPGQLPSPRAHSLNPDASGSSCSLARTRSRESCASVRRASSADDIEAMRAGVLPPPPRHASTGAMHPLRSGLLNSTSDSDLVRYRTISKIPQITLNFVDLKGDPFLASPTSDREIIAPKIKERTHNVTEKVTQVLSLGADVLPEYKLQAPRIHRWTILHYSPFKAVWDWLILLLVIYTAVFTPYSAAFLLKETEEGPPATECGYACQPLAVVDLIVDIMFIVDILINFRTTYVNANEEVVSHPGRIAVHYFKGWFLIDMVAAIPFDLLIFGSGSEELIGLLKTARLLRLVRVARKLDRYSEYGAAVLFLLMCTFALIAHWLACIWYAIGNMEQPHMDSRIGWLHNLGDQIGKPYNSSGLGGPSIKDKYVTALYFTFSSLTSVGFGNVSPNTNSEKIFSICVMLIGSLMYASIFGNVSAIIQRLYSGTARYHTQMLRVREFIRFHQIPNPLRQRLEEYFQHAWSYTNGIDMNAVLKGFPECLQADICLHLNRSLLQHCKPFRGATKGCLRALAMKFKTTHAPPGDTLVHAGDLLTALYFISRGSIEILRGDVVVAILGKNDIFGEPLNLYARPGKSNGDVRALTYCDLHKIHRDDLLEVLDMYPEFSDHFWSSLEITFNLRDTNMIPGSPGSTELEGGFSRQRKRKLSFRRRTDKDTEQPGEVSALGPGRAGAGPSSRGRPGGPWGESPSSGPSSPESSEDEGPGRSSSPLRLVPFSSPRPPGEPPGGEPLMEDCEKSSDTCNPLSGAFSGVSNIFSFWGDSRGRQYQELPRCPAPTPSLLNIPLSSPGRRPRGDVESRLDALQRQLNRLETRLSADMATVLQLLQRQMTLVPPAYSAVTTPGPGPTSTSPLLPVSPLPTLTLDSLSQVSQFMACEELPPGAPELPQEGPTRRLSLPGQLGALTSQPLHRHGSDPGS
# Description: The human […] (hERG) channel, is a potassium channel whose inhibition is related to cardiac arrhythmias (Abbott et al., Cell, 1999, V97(2); p175-187). The effect of the “E559 polymorph” on the hERG channel was performed in a cell-based hERG antagonist assay. In brief, CHO-K1 cells were stably transfected with human hERG cDNA and allowed to achieve whole cell configuration in culture. Cells were held at −80 mV and a 500 ms pulse to −40 mV is delivered to measure the leaking current, which is subtracted from the tail current on-line. Then the cell is depolarized to +40 mV for 500 ms and then to −80 mV over a 100 ms ramp to elicit the hERG tail current. This paradigm is delivered once every 8 s to monitor the current amplitude. The assay is conducted at room temperature. The “E559 polymorph” is then applied to cells from low to high concentrations (0.0003, 0.003, 0.01, 0.03, 0.1, 0.3, 1, 10, 30, and 100 μM) sequentially for 5 minutes. Astermizole is used at multiple concentrations as a reference compound to calculate the percent inhibition of hERG channel by the “polymorph E559”.
# 5-HT2A receptor = 5-HT2A receptor (Homo sapiens, UniProt P28223)
# Chain of 5-HT2A receptor (P28223 whole entry): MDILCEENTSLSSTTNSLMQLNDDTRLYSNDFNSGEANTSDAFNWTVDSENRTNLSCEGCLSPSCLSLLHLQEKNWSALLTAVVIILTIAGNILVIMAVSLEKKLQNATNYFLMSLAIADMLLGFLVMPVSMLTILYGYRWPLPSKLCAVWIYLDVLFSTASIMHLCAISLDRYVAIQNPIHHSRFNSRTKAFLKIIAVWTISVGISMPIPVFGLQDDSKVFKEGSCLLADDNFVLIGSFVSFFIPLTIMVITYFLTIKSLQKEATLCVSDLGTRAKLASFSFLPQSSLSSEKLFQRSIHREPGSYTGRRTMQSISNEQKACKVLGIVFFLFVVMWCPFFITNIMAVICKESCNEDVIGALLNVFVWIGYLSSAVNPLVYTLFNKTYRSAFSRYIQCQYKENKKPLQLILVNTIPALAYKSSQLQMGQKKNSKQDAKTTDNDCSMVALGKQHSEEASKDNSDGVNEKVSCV
# D1 dopamine receptor = D1 dopamine receptor (Homo sapiens, UniProt P21728); test: Functional assay in HEK-293 cells (cAMP); assay type: cell-based; parameters: expressed in transfected cells; host or cells: HEK-293
# Chain of D1 dopamine receptor (P21728 whole entry): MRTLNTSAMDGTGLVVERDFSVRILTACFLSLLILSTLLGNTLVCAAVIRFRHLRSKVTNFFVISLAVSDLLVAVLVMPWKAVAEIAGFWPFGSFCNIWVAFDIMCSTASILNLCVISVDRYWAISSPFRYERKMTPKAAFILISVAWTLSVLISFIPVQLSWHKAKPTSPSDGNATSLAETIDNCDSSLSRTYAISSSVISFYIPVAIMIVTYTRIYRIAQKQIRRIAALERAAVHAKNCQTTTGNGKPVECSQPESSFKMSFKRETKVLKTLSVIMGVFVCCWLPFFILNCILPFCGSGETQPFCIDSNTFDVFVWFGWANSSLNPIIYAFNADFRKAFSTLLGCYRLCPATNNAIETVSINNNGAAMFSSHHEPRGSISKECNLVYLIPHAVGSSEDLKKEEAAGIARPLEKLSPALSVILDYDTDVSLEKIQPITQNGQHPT
# Description: Neuro-receptor binding and functional effects of the “E559 polymorph” was examined by analyzing binding affinity [Ki (nM)], functional agonist activity [EC50 (nM)], and functional antagonist activity [IC50 (nM)] against a panel of key receptors in neurophysiological disorders. Binding and functional assays were performed at “E559 polymorph” concentrations of 0.0003, 0.003, 0.01, 0.03, 0.1, 0.3, 1, and 10 μM. In binding assays, cell membrane homogenates, expressing each receptor target, were incubated with the corresponding radio-ligand in absence or presence of several concentration of the “E559 polymorph” compound. The measurement of binding affinity of the “E559 polymorph” is represented in TABLE XIII by Ki (nM) which was calculated as percent inhibition of the binding of a radioactively labeled reference ligand at each receptor. […] Following incubation, the cells were lysed and the appropriate fluorescent probe (Ca2+ flux, cAMP, or IP1) were added for 60 minutes to measure the fluorescence transfer at the appropriate wavelength using a microplate reader. The cellular agonist effect (EC50) was calculated as a percent of control response to a known reference agonist and the cellular antagonist effect (IC50) was calculated as a percent inhibition of control reference agonist response for each receptor.
# D3 dopamine receptor = D3 dopamine receptor (Homo sapiens, UniProt P35462); test: BRET-based G protein dissociation assay; assay type: cell-based
# Chain of D3 dopamine receptor (P35462 whole entry): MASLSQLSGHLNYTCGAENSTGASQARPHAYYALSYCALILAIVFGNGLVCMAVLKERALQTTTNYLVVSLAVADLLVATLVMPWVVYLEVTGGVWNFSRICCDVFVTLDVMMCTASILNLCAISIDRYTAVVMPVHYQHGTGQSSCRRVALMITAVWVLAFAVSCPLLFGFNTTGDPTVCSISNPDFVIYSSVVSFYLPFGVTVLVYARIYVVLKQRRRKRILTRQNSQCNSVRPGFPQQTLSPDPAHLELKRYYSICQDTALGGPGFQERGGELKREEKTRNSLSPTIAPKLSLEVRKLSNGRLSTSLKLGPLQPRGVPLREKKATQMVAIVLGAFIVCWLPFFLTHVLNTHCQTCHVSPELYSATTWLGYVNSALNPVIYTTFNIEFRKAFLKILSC
# [4] = target: H4 histaminergic receptor (Homo sapiens, UniProt Q9H3N8); test: BRET-based G protein dissociation assay; assay type: cell-based
# Chain of H4 histaminergic receptor (Q9H3N8 whole entry): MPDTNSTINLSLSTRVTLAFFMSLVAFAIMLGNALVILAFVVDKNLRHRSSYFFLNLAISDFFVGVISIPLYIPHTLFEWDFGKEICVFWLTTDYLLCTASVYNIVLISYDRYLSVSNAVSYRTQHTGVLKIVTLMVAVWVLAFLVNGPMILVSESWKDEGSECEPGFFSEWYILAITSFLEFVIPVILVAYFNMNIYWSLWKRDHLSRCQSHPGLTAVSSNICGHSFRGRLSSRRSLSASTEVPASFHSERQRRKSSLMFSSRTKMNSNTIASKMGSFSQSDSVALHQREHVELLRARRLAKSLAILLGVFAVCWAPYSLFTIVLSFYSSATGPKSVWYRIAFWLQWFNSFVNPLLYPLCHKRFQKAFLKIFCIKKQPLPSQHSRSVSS
# [5] = percentage of the reference ligand-induced maximal response, read-out: Emax
structure (smiles),measurement,setting,value
"CCN(CC)C(=O)[C@@H]1C=C2c3cccc4[nH]c(Br)c(c34)C[C@H]2N(C)C1 [E559, (5R, 8R)-2-Bromo-9,10-didehydro-N,N-diethyl-6-methylergoline-8-carboxamide hemi-D-tartrate]",EC50,[1],25 nM
same,Kb,[1],56.9 nM
same,EC50,[2],5820 nM
same,EC50,[3],10.3 nM
same,Emax,[3],40.5%
same,Kb,[3],16 nM
same,EC50,hERG channel,31600 nM
same,functional (agonist) activity at 5-HT2A,"5-HT2A receptor; FIG. 15, FIG. 16A/B",potent partial agonist of 5-HT2A
same,antagonism of 5-HT activation of 5-HT2A,"5-HT2A receptor; Gq dissociation and β-arrestin2 recruitment, FIG. 17A/B",antagonizes the 5-HT activation
same,EC50,D1 dopamine receptor,> 10000 nM
same,IC50,D1 dopamine receptor,820 nM
same,EC50,D3 dopamine receptor,2.84 nM
same,Emax,D3 dopamine receptor,31.8%
same,Kb,D3 dopamine receptor,7.13 nM
same,Emax,[4],17.4%
"CCN(CC)C(=O)[C@@H]1C=C2c3cccc4[nH]cc(c34)C[C@H]2N(C)C1 [LSD, lysergic acid diethylamide, reference compound]",EC50,"[1]; agonist mode, read-out: EC50",38.5 nM
same,Emax,[1]; percentage of the reference ligand-induced maximal response,24.8%
same,EC50,"[2]; agonist mode, read-out: EC50",> 10000 nM
same,functional (agonist) activity at 5-HT2A,5-HT2A receptor,potent almost full 5-HT2A agonist
same,EC50,"D3 dopamine receptor; agonist mode, read-out: EC50",7.57 nM
same,Emax,D3 dopamine receptor; [5],74.5%
same,EC50,[4]; agonist mode,0.09 nM
same,Emax,[4]; [5],15%

# Source: patent US12331051B2 (priority 2021, dated 2025)
